Our source for the TGI values is PubChem BioAssay (NCI).

Assay in all cases: NCI-60 cell line screen, 48 h
The subject of experiment [1] is MDA-MB-435.
In experiment [2] the test system is OVCAR-3 ovarian.
For experiment [3], the system named is DU-145 prostate.
Experiment [4] relates to T-47D breast.
Experiment [5] has as its system SK-MEL-2 melanoma.
Experiment [6] deals with CCRF-CEM leukemia.
For experiment [7], the system named is K-562 leukemia.
The test system of experiment [8] is DMS 273 small cell lung.
For experiment [9], the system named is DMS 114 small cell lung.
Experiment [10] has as its system KM20L2 colon.
Experiment [11] concerns HCT-116 colon.
In experiment [12] the test system is SNB-78 CNS.
Experiment [13] relates to XF 498 CNS.
For experiment [14], the system named is M19-MEL melanoma.
Experiment [15] relates to HOP-18 NSCLC.
Experiment [16] has as its system MOLT-4 leukemia.
Experiment [17] has as its system DLD-1 colon.
Experiment [18] has as its system SF-295 CNS.
Experiment [19] has as its system HT29 colon.
For experiment [20], the system named is SK-OV-3 ovarian.

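Method: 48-hour compound exposure of cells in 96-well plates, five concentrations, linear interpolation of endpoints. Definition used: TGI = concentration required for complete inhibition of growth.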

In the case of `O=c1cnn(C/C=C\CO)c(=O)[nH]1`, the TGI in [1], in [2], in experiment [3], in experiment [4], in experiment [5] and in experiment [6] was over 100 µM in each case. Besides, the TGI in experiment [7] was over 100 µM.

With `COC(=O)C(=O)C(C(=O)Nc1cccc(C)c1C)C1Sc2ccccc2NC1=O` (stereo unspecified), the TGI was over 25 µM in [8]; 19 µM in [9]; over 25 µM in experiment [10]; over 25 µM in [11]; over 25 µM in [2]; over 25 µM in experiment [12]. For the same compound, the TGI in experiment [13], in experiment [14], in experiment [15], in experiment [16], in experiment [17] and in experiment [18] was over 25 µM each time. Further, the TGI in experiment [5] was 18.3 µM; in experiment [6], over 25 µM; in [7] it was over 25 µM; in experiment [19], over 25 µM; in experiment [20], over 25 µM.

With `Cn1cnc([N+](=O)[O-])c1Sc1nc2cc(Cl)c(F)cc2[nH]1`, the TGI in experiment [8] was determined as 17.2 µM; in experiment [9], 20.7 µM; in experiment [10], 26.9 µM; in experiment [11] it was 20.6 µM; in experiment [12], 25.9 µM; in experiment [14], 23.9 µM. Besides, the TGI in experiment [15] was 29 µM; in experiment [16], 6.29 µM; in experiment [17], 22.7 µM; in experiment [18] it was over 100 µM; in [19], 47.3 µM; in [20], 61.9 µM.
